According to the supplement of paper PMC10307832:

Tests used:
Assay in all cases: relative viability (nuclei count vs DMSO), 5 days (fraction); higher = more cells survive
Omipalisib + Bortezomib = compound: COc1ncc(-c2ccc3nccc(-c4ccnnc4)c3c2)cc1NS(=O)(=O)c1ccc(F)cc1F [Omipalisib] + CC(C)C[C@H](NC(=O)[C@H](Cc1ccccc1)NC(=O)c1cnccn1)B(O)O [Bortezomib] (partner 0.002 µM)
How it was run: (§1)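 After 5 days of treatment, lung cancer cells in 1536-well plates were fixed and stained in a single step (final 0.05% Triton X-100, 1% formaldehyde, 1 ug/ml Hoechst) and their nuclei counted on 4× images. Treatment had been applied by pin tool the day after seeding as one drug alone or as a fixed anchor-drug dose with five library-drug doses (not always all listed) in √10 steps. Relative viability is the nuclei count of treated wells divided by that of vehicle wells, and values are medians of duplicate plates.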

Omipalisib + Luminespib = compound: COc1ncc(-c2ccc3nccc(-c4ccnnc4)c3c2)cc1NS(=O)(=O)c1ccc(F)cc1F [Omipalisib] + CCNC(=O)c1noc(-c2cc(C(C)C)c(O)cc2O)c1-c1ccc(CN2CCOCC2)cc1 [Luminespib] (partner 0.01 µM)
How it was run: as §1

Omipalisib + Tozasertib = compound: COc1ncc(-c2ccc3nccc(-c4ccnnc4)c3c2)cc1NS(=O)(=O)c1ccc(F)cc1F [Omipalisib] + Cc1cc(Nc2cc(N3CCN(C)CC3)nc(Sc3ccc(NC(=O)C4CC4)cc3)n2)n[nH]1 [Tozasertib] (partner 0.1 µM)
How it was run: as §1

Cell Line	relative viability (Omipalisib + Bortezomib; first compound 0.0003 µM)	relative viability (Omipalisib + Bortezomib; first compound 0.003 µM)	relative viability (Omipalisib + Bortezomib; first compound 0.03 µM)	relative viability (Omipalisib + Luminespib; first compound 0.0003 µM)	relative viability (Omipalisib + Luminespib; first compound 0.003 µM)	relative viability (Omipalisib + Luminespib; first compound 0.03 µM)	relative viability (Omipalisib + Tozasertib; first compound 0.0003 µM)	relative viability (Omipalisib + Tozasertib; first compound 0.003 µM)	relative viability (Omipalisib + Tozasertib; first compound 0.03 µM)
201T	1.13	1.11	0.777	0.95	1.05	0.463	0.883	0.894	0.473
A-427	0.969	0.903	0.913	0.857	0.678	0.863	0.206	0.188	0.163
ABC-1	0.324	0.299	0.246	0.688	0.362	0.484	0.161	0.189	0.213
BEN	0.773	0.527	0.46	0.274	0.276	0.288	0.43	0.426	0.457
CAL-12T	1.15	1.06	0.484	0.319	0.194	0.107	0.306	0.28	0.151
COR-L23	1	0.934	0.63	0.616	0.608	0.277	0.209	0.21	0.159
COR-L 105	0.89	0.656	0.411	0.703	0.796	0.591	0.356	0.359	0.316
ChaGo-K-1	1.06	0.993	1.04	0.615	0.593	0.503	0.242	0.202	0.167
EKVX	1.01	0.777	0.401	0.859	0.717	0.423	0.407	0.246	0.157
EMC-BAC-2	0.968	0.862	0.747	1.07	0.711	0.58	0.266	0.27	0.261
EPLC-272H	1.08	0.732	0.611	0.191	0.176	0.156	0.254	0.186	0.165
H3255	0.803	0.588	0.571	0.942	0.786	0.613	0.554	0.556	0.286
HARA	1.16	1.15	0.78	0.605	0.621	0.0924	0.11	0.0779	0.0711
HCC-15	0.988	0.848	0.813	0.331	0.383	0.206	0.373	0.38	0.237
HCC-44	0.874	0.694	0.513	1.08	1.09	0.295	1.03	0.953	0.234
HCC-78	0.338	0.32	0.252				0.327	0.328	0.21
HCC-366	0.918	0.707	0.168				0.113	0.0977	0.0346
HCC-827	1.06	1.17	0.828	0.588	0.302	0.194	0.453	0.365	0.187

Cell Line	relative viability (Omipalisib + Bortezomib; first compound 0.0003 µM)	relative viability (Omipalisib + Bortezomib; first compound 0.003 µM)	relative viability (Omipalisib + Bortezomib; first compound 0.03 µM)	relative viability (Omipalisib + Luminespib; first compound 0.0003 µM)	relative viability (Omipalisib + Luminespib; first compound 0.003 µM)	relative viability (Omipalisib + Luminespib; first compound 0.03 µM)	relative viability (Omipalisib + Tozasertib; first compound 0.0003 µM)	relative viability (Omipalisib + Tozasertib; first compound 0.003 µM)	relative viability (Omipalisib + Tozasertib; first compound 0.03 µM)
HOP-62	0.803	0.617	0.625	0.961	1.05	0.883	0.399	0.356	0.3
LC-2-ad	1.11	0.978	0.888	0.825	1.05	0.461	0.349	0.401	0.289
LCLC-97TM1	0.589	0.477	0.146	0.692	0.511	0.202	0.169	0.119	0.0744
LCLC-103H	0.943	0.891	0.732	0.999	0.714	0.427	0.406	0.361	0.18
LK-2				0.153	0.2	0.174	0.17	0.166	0.183
LOU-NH91	0.543	0.517	0.453	0.345	0.386	0.337	0.706	0.621	0.441
LU99A	1.01	0.728	0.495	0.201	0.206	0.24	0.289	0.233	0.215
LXF-289	1.03	0.99	0.808	0.536	0.456	0.232	0.21	0.0991	0.0753
NCI-H23	0.877	0.684	0.306	0.225	0.219	0.218	0.342	0.295	0.265
NCI-H322M	1.28	1.01	1.03	0.518	0.517	0.298	0.467	0.407	0.348
NCI-H358				0.325	0.221	0.0986	0.126	0.108	0.0977
NCI-H441	0.418	0.362	0.259	0.207	0.28	0.234	0.683	0.451	0.238
NCI-H460	1.07	0.824	0.109	0.0375	0.0227	0.0165	0.476	0.393	0.0957
NCI-H520	0.465	0.254	0.171	0.208	0.232	0.212	0.319	0.308	0.235
NCI-H596	1.04	0.691	0.386	0.98	0.657	0.285	0.824	0.598	0.287
NCI-H647	1.05	0.739	0.462	0.233	0.16	0.13	0.33	0.158	0.0783
NCI-H650	0.749	0.501	0.293	0.81	0.592	0.378	0.665	0.608	0.396
